Measured values: patent US10259810B2, “N-sulfonylated pyrazolo[3,4-b]pyridin-6-carboxamides and method of use” (AbbVie S.à.r.l., priority 2015, dated 2019)
Where two headings read alike, the source gives them in different places.

Key:
Assay type in all cases: cell-based
ΔF508-CFTR [1] = biological target: T1, ΔF508-CFTR (Homo sapiens, UniProt P13569, DEL508-508); test: CFTR cell surface levels using HRP-tagged ΔF508-CFTR expressing CFBE cells, in the presence of a co-corrector
T1 construct: host or cells: CFBE41o-, doxycycline-inducible
Summary of the method: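 Chemiluminescent read-out of surface HRP (15 min, dark) after PBS washes. Activity is normalized as 100×(sample−DMSO)/(3 μM co-corrector alone−DMSO).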

ΔF508-CFTR [2] = biological target: T1, ΔF508-CFTR; test: CFTR cell surface levels using HRP-tagged ΔF508-CFTR expressing CFBE cells, intrinsic corrector capacity; set-up: % Activation: concentration or dose not given beside the values
Summary of the method: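 Read-out: chemiluminescent HRP activity of ECL4-HRP-tagged ΔF508-CFTR at the cell surface, 15 min substrate in dark. Normalized as 100×(sample−DMSO)/(positive control−DMSO).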

CFTR ΔF508 = biological target: T2, CFTR ΔF508 (Homo sapiens, UniProt P13569, DEL508-508); test: Chronic TECC assay, primary bronchial epithelial cells of CF patients homozygous for CFTR ΔF508 (corrector, co-corrector and potentiator); conditions: for % Activity at 1 μM (AUC**): test compound at 1 μM; for % Activity at 3 μM (AUC**): test compound at 3 μM
T2 construct: bronchial epithelial cells isolated from CF patients homozygous for the CFTR ΔF508 mutation; McGill University; Asterand; University of North Carolina hAEC-CF; host or cells: primary human bronchial epithelial cells from CF patients homozygous for ΔF508, differentiated at air-liquid interface
Summary of the method: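 Primary bronchial epithelial cells from ΔF508-homozygous CF patients on collagen IV-coated Transwells were chronically treated with test compound plus corrector and potentiator, which were re-added before recording. Ieq was derived from PD and Rt in NaCl-Ringer, pH 7.4, at 37° C, with apical amiloride and bilateral forskolin, recorded every 2 min over 20 min. Ieq increase was normalized to controls, and EC50 was taken from per-well concentrations.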

[3] = HRP-tagged ΔF508-CFTR CFBE cells, in the presence of 3 μM co-corrector
[4] = HRP-tagged ΔF508-CFTR expressing CFBE41o- cells, compound alone (intrinsic corrector capacity), 20 hours at 33° C.
[5] = HRP-tagged ΔF508-CFTR CFBE cells, in the presence of 3 μM co-corrector, read-out: EC50
[6] = HRP-tagged ΔF508-CFTR expressing CFBE41o- cells, compound alone (intrinsic corrector capacity), 20 hours at 33° C., read-out: EC50
[7] = chronic TECC, AUC = full area under the curve upon forskolin stimulation
[8] = chronic TECC, AUC = full area under the curve upon forskolin stimulation, read-out: EC50 (nM) (AUC**)

T2 sequence (P13569 with tags, fused parts or gaps DEL508-508): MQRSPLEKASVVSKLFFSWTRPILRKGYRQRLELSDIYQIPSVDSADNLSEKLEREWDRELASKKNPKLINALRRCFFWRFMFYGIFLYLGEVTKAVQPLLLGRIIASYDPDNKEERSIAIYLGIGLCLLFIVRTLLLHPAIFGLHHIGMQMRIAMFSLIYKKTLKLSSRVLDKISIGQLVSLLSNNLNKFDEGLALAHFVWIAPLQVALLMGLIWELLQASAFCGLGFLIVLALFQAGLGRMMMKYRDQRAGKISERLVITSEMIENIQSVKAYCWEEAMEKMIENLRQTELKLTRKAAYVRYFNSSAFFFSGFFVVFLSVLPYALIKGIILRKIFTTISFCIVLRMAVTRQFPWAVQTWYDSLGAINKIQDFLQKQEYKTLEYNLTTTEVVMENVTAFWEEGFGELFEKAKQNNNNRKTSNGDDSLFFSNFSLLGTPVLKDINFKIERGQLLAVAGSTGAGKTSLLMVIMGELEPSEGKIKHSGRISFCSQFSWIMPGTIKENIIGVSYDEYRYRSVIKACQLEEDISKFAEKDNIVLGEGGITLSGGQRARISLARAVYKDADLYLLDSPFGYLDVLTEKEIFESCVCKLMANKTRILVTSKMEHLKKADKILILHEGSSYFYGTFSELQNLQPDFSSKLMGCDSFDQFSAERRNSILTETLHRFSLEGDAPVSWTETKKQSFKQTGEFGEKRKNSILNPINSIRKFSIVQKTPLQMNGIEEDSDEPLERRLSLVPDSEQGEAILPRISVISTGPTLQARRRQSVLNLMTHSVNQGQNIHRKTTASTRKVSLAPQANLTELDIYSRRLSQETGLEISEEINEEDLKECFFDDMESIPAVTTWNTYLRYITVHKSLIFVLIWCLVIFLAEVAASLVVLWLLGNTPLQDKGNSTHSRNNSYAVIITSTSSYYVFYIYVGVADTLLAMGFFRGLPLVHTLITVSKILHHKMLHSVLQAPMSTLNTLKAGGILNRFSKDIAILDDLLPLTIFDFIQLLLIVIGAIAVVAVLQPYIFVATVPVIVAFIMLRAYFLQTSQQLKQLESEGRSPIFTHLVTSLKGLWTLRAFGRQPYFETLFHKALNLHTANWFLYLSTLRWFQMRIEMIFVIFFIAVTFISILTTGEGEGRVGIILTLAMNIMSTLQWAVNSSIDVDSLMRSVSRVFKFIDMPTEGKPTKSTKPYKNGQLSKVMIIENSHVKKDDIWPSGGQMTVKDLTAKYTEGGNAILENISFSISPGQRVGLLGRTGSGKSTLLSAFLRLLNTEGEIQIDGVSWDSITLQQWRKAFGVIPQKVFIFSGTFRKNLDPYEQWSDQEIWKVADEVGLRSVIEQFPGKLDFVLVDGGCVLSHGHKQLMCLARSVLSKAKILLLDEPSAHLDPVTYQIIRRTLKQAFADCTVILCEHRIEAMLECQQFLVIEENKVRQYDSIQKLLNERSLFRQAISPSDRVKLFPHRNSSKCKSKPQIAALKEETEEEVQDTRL
T1 sequence (P13569 with tags, fused parts or gaps DEL508-508): as above

SMILES: CS(=O)(=O)NC(=O)c1cc(N2CCC(CCN3CCOCC3)CC2)c2c(C3CCC3)nn(-c3ccccc3)c2n1 [Compound 331, 3-cyclobutyl-N-(methanesulfonyl)-4-{4-[2-(morpholin-4-yl)ethyl]piperidin-1-yl}-1-phenyl-1H-pyrazolo[3,4-b]pyridine-6-carboxamide]
- EC50 (ΔF508-CFTR [1]): 38.2 nM
- % Activation (ΔF508-CFTR [1]; [3]): 546.05%
- EC50 (ΔF508-CFTR [2]): 136 nM
- % Activation (ΔF508-CFTR [2]; [4]): 347.15%
- EC50 (CFTR ΔF508): 10 nM

SMILES: CCOC(=O)N1CCN(c2cc(C(=O)NS(C)(=O)=O)nc3c2c(C(C)C)nn3-c2ccc(F)cc2)CC1 [Compound 337, ethyl 4-[1-(4-fluorophenyl)-6-[(methanesulfonyl)carbamoyl]-3-(propan-2-yl)-1H-pyrazolo[3,4-b]pyridin-4-yl]piperazine-1-carboxylate]
- % Activation (ΔF508-CFTR [1]; [3]): 532.3%
- EC50 (ΔF508-CFTR [1]; [5]): 30.5 nM
- % Activation (ΔF508-CFTR [2]; [4]): 404.9%
- EC50 (ΔF508-CFTR [2]; [6]): 134 nM
- % Activity at 1 μM (AUC**) (CFTR ΔF508; [7]): 299.50%

SMILES: COCCN1CCN(c2cc(C(=O)NS(C)(=O)=O)nc3c2c(C(C)C)nn3-c2ccc(F)cc2)CC1 [Compound 340, 1-(4-fluorophenyl)-N-(methanesulfonyl)-4-[4-(2-methoxyethyl)piperazin-1-yl]-3-(propan-2-yl)-1H-pyrazolo[3,4-b]pyridine-6-carboxamide]
- % Activation (ΔF508-CFTR [1]; [3]): 319.2%
- EC50 (ΔF508-CFTR [1]; [5]): 786 nM
- % Activation (ΔF508-CFTR [2]; [4]): 138.95%
- EC50 (ΔF508-CFTR [2]; [6]): 1390 nM
- % Activity at 1 μM (AUC**) (CFTR ΔF508; [7]): 216.53%

SMILES: CC(C)c1nn(-c2ccc(F)cc2)c2nc(C(=O)NS(C)(=O)=O)cc(N3CCC(N4CCCCC4)CC3)c12 [Compound 348, 4-([1,4'-bipiperidin]-1'-yl)-1-(4-fluorophenyl)-N-(methanesulfonyl)-3-(propan-2-yl)-1H-pyrazolo[3,4-b]pyridine-6-carboxamide]
- % Activation (ΔF508-CFTR [1]; [3]): 468.65%
- EC50 (ΔF508-CFTR [1]; [5]): 723 nM
- % Activation (ΔF508-CFTR [2]; [4]): 293.6%
- EC50 (ΔF508-CFTR [2]; [6]): 5970 nM
- EC50 (CFTR ΔF508; [8]): 200 nM
- % Activity at 1 μM (AUC**) (CFTR ΔF508; [7]): 343.24%

SMILES: CS(=O)(=O)NC(=O)c1cc(N2CCC(N3CCCCC3)CC2)c2c(C3CCC3)nn(-c3ccccc3)c2n1 [Compound 365, 4-([1,4′-bipiperidin]-1′-yl)-3-cyclobutyl-N-(methanesulfonyl)-1-phenyl-1H-pyrazolo[3,4-b]pyridine-6-carboxamide]
- EC50 (ΔF508-CFTR [1]): 271 nM
- % Activation (ΔF508-CFTR [1]; [3]): 469.95%
- EC50 (ΔF508-CFTR [2]): 1670 nM
- % Activation (ΔF508-CFTR [2]; [4]): 313%
- EC50 (CFTR ΔF508): 200 nM

SMILES: COCC1CCN(c2cc(C(=O)NS(=O)(=O)C3CCOC3)nc3c2c(C2CCC2)nn3-c2ccccc2)CC1 (stereo not shown) [Compound 369, 3-cyclobutyl-4-[4-(methoxymethyl)piperidin-1-yl]-N-(oxolane-3-sulfonyl)-1-phenyl-1H-pyrazolo[3,4-b]pyridine-6-carboxamide]
- % Activation (ΔF508-CFTR [1]; [3]): 444%
- EC50 (ΔF508-CFTR [1]; [5]): 106 nM
- % Activation (ΔF508-CFTR [2]; [4]): 292.7%
- EC50 (ΔF508-CFTR [2]; [6]): 101 nM
- EC50 (CFTR ΔF508; [8]): 8.3 nM
- % Activity at 1 μM (AUC**) (CFTR ΔF508; [7]): 583.16%

SMILES: COCC1CCN(c2cc(C(=O)NS(C)(=O)=O)nc3c2c(C(C)C)nn3-c2cc(C)nc(C)c2)CC1 [Compound 370, 1-(2,6-dimethylpyridin-4-yl)-N-(methanesulfonyl)-4-[4-(methoxymethyl)piperidin-1-yl]-3-(propan-2-yl)-1H-pyrazolo[3,4-b]pyridine-6-carboxamide]
- % Activation (ΔF508-CFTR [1]; [3]): 343.2%
- EC50 (ΔF508-CFTR [1]; [5]): 691 nM
- % Activation (ΔF508-CFTR [2]; [4]): 172.2%
- EC50 (ΔF508-CFTR [2]; [6]): 1490 nM
- % Activity at 3 μM (AUC**) (CFTR ΔF508; [7]): 226.54%

SMILES: COCC1CN(C2CCN(c3cc(C(=O)NS(=O)(=O)N(C)C)nc4c3c(C3CCC3)nn4-c3ccc(F)cc3)CC2)CCO1 (stereo not shown) [Compound 379, 3-cyclobutyl-N-(dimethylsulfamoyl)-1-(4-fluorophenyl)-4-{4-[2-(methoxymethyl)morpholin-4-yl]piperidin-1-yl}-1H-pyrazolo[3,4-b]pyridine-6-carboxamide]
- % Activation (ΔF508-CFTR [1]; [3]): 440.55%
- EC50 (ΔF508-CFTR [1]; [5]): 61.1 nM
- % Activation (ΔF508-CFTR [2]; [4]): 268.45%
- EC50 (ΔF508-CFTR [2]; [6]): 141 nM
- EC50 (CFTR ΔF508; [8]): 43 nM

SMILES: CC(C)N1CCN(C2CCN(c3cc(C(=O)NS(=O)(=O)N(C)C)nc4c3c(C3CCC3)nn4-c3ccc(F)cc3)CC2)CC1 [Compound 382, 3-cyclobutyl-N-(dimethylsulfamoyl)-1-(4-fluorophenyl)-4-{4-[4-(propan-2-yl)piperazin-1-yl]piperidin-1-yl}-1H-pyrazolo[3,4-b]pyridine-6-carboxamide]
- % Activation (ΔF508-CFTR [1]; [3]): 500.01%
- EC50 (ΔF508-CFTR [1]; [5]): 158 nM
- % Activation (ΔF508-CFTR [2]; [4]): 305.9%
- EC50 (ΔF508-CFTR [2]; [6]): 261 nM
- EC50 (CFTR ΔF508; chronic TECC, Ieq = calculations based on the maximum current, read-out: EC50 (nM) (Ieq*)): 205 nM
- % Activity at 3 μM (AUC**) (CFTR ΔF508; [7]): 347%

SMILES: COCC1CCN(c2cc(C(=O)NS(C)(=O)=O)nc3c2c(C2CCC2)nn3-c2ccnc(OC)c2)CC1 [Compound 385, 3-cyclobutyl-N-(methanesulfonyl)-4-[4-(methoxymethyl)piperidin-1-yl]-1-(2-methoxypyridin-4-yl)-1H-pyrazolo[3,4-b]pyridine-6-carboxamide]
- % Activation (ΔF508-CFTR [1]; [3]): 393.53%
- EC50 (ΔF508-CFTR [1]; [5]): 64 nM
- % Activation (ΔF508-CFTR [2]; [4]): 227.5%
- EC50 (ΔF508-CFTR [2]; [6]): 121 nM
- EC50 (CFTR ΔF508; [8]): 12.3 nM

SMILES: COCC1CCN(c2cc(C(=O)NS(=O)(=O)N3CCOCC3)nc3c2c(C2CCC2)nn3-c2ccccc2)CC1 [Compound 396, 3-cyclobutyl-4-[4-(methoxymethyl)piperidin-1-yl]-N-(morpholine-4-sulfonyl)-1-phenyl-1H-pyrazolo[3,4-b]pyridine-6-carboxamide]
- % Activation (ΔF508-CFTR [1]; [3]): 385.8%
- EC50 (ΔF508-CFTR [1]; [5]): 55 nM
- % Activation (ΔF508-CFTR [2]; [4]): 222.9%
- EC50 (ΔF508-CFTR [2]; [6]): 121 nM
- % Activity at 3 μM (AUC**) (CFTR ΔF508; [7]): 259.4666%

SMILES: COCC1CCN(c2cc(C(=O)NS(=O)(=O)N3CCC(N4CCOCC4)CC3)nc3c2c(C2CCC2)nn3-c2ccccc2)CC1 [Compound 397, 3-cyclobutyl-4-[4-(methoxymethyl)piperidin-1-yl]-N-[4-(morpholin-4-yl)piperidine-1-sulfonyl]-1-phenyl-1H-pyrazolo[3,4-b]pyridine-6-carboxamide]
- % Activation (ΔF508-CFTR [1]; [3]): 381.8%
- EC50 (ΔF508-CFTR [1]; [5]): 49 nM
- % Activation (ΔF508-CFTR [2]; [4]): 234.5%
- EC50 (ΔF508-CFTR [2]; [6]): 155 nM
- % Activity at 3 μM (AUC**) (CFTR ΔF508; [7]): 251.7766%

SMILES: COCC1CCN(c2cc(C(=O)NS(=O)(=O)N3CCC(F)CC3)nc3c2c(C2CCC2)nn3-c2ccccc2)CC1 [Compound 399, 3-cyclobutyl-N-(4-fluoropiperidine-1-sulfonyl)-4-[4-(methoxymethyl)piperidin-1-yl]-1-phenyl-1H-pyrazolo[3,4-b]pyridine-6-carboxamide]
- % Activation (ΔF508-CFTR [1]; [3]): 388.77%
- EC50 (ΔF508-CFTR [1]; [5]): 44.2 nM
- % Activation (ΔF508-CFTR [2]; [4]): 237.5%
- EC50 (ΔF508-CFTR [2]; [6]): 72.1 nM
- % Activity at 1 μM (AUC**) (CFTR ΔF508; [7]): 244.7508%

SMILES: COCC1CCN(c2cc(C(=O)NS(=O)(=O)N3CCN(C)CC3)nc3c2c(C2CCC2)nn3-c2ccccc2)CC1 [Compound 400, 3-cyclobutyl-4-[4-(methoxymethyl)piperidin-1-yl]-N-(4-methylpiperazine-1-sulfonyl)-1-phenyl-1H-pyrazolo[3,4-b]pyridine-6-carboxamide]
- % Activation (ΔF508-CFTR [1]; [3]): 365.43%
- EC50 (ΔF508-CFTR [1]; [5]): 157 nM
- % Activation (ΔF508-CFTR [2]; [4]): 180.65%
- EC50 (ΔF508-CFTR [2]; [6]): 163 nM
- % Activity at 1 μM (AUC**) (CFTR ΔF508; [7]): 230%

SMILES: COCC1CCN(c2cc(C(=O)NS(=O)(=O)N(C)C)nc3c2c(C2CCC2)nn3-c2ccccc2)CC1 [Compound 402, 3-cyclobutyl-N-(dimethylsulfamoyl)-4-[4-(methoxymethyl)piperidin-1-yl]-1-phenyl-1H-pyrazolo[3,4-b]pyridine-6-carboxamide]
- % Activation (ΔF508-CFTR [1]; [3]): 471.42%
- EC50 (ΔF508-CFTR [1]; [5]): 116 nM
- % Activation (ΔF508-CFTR [2]; [4]): 303.5%
- EC50 (ΔF508-CFTR [2]; [6]): 312 nM
- EC50 (CFTR ΔF508; [8]): 12.1 nM
- % Activity at 1 μM (AUC**) (CFTR ΔF508; [7]): 345.045%
